# Data published in ChEMBL document CHEMBL1201862, “PubChem BioAssay data set” (2004).
#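 1) Cells in 96-well plates. 2) Compound, 48 h, 5 concentrations. 3) Linear interpolation between surrounding doses. 4) Unreached endpoint = highest concentration. At the GI50, growth is halved.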 Active and inactive are the calls of the source. No stated cut-off is given here; in the data, active = GI50 up to about 1.1 µM and inactive = higher.
# Key:
# Experiment in all cases: NCI tumour cell line growth inhibition, 48 h
# [1] = tested on: SNB-78
# [2] = tested on: MOLT-4
# [3] = tested on: HCC 2998
# [4] = tested on: OVCAR-4
# [5] = tested on: UACC-257
# [6] = tested on: UO-31
# [7] = tested on: SF-295
# [8] = tested on: KM12
# [9] = tested on: OVCAR-3
# [10] = tested on: DLD-1
# [11] = tested on: SR
# [12] = tested on: M14
# [13] = tested on: DMS-273
# [14] = tested on: NCI-H522
# [15] = tested on: ACHN
# [16] = tested on: OVCAR-5
# [17] = tested on: U-251
# [18] = tested on: HCT-116
# [19] = tested on: CCRF-CEM
# [20] = tested on: HOP-92
# [21] = tested on: SF-539
# [22] = tested on: M19-MEL
# [23] = tested on: KM-20L2
# [24] = tested on: NCI-H23
# [25] = tested on: A549
# [26] = tested on: COLO 205
# [27] = tested on: 786-0
# [28] = tested on: SN12C
# [29] = tested on: NCI-H460
# [30] = tested on: IGROV-1
# [31] = tested on: SF-268
# [32] = tested on: HCT-15
# [33] = tested on: HT-29
# [34] = tested on: Malme-3M
# [35] = tested on: SK-OV-3
# [36] = tested on: A498
# [37] = tested on: TK-10
# [38] = tested on: DMS-114
# [39] = tested on: SNB-75
# [40] = tested on: SK-MEL-2
# [41] = tested on: OVCAR-8
# [42] = tested on: LXFL 529
# [43] = tested on: NCI-H226
# [44] = tested on: RPMI-8226
# [45] = tested on: HOP-62
# [46] = tested on: LOX IMVI
# [47] = tested on: SK-MEL-5
# [48] = tested on: SK-MEL-28
# [49] = tested on: HL-60
# [50] = tested on: EKVX
# [51] = tested on: RXF 393
# [52] = tested on: CAKI-1
# [53] = tested on: K562
# [54] = tested on: SNB-19
# [55] = tested on: SW-620
# [56] = tested on: XF498
# [57] = tested on: NCI/ADR-RES
# [58] = tested on: MCF7
# [59] = tested on: UACC-62
structure (smiles),measurement,setting,value
O=C(O)CSc1nnc(COc2ccccc2)n1-c1ccccc1,GI50,[1],> 100 µM (inactive)
same,GI50,[2],> 100 µM (inactive)
same,GI50,[3],> 100 µM (inactive)
same,GI50,[4],> 100 µM (inactive)
same,GI50,[5],> 100 µM (inactive)
same,GI50,[6],> 100 µM (inactive)
same,GI50,[7],> 100 µM (inactive)
same,GI50,[8],> 100 µM (inactive)
same,GI50,[9],> 100 µM (inactive)
same,GI50,[10],> 100 µM (inactive)
same,GI50,[11],> 100 µM (inactive)
same,GI50,[12],> 100 µM (inactive)
same,GI50,[13],> 100 µM (inactive)
same,GI50,[14],> 100 µM (inactive)
same,GI50,[15],> 100 µM (inactive)
same,GI50,[16],> 100 µM (inactive)
same,GI50,[17],> 100 µM (inactive)
same,GI50,[18],> 100 µM (inactive)
same,GI50,[19],> 100 µM (inactive)
same,GI50,[20],> 100 µM (inactive)
same,GI50,[21],> 100 µM (inactive)
same,GI50,[22],> 100 µM (inactive)
same,GI50,[23],> 100 µM (inactive)
same,GI50,[24],> 100 µM (inactive)
same,GI50,[25],> 100 µM (inactive)
same,GI50,[26],> 100 µM (inactive)
same,GI50,[27],> 100 µM (inactive)
same,GI50,[28],> 100 µM (inactive)
same,GI50,[29],> 100 µM (inactive)
same,GI50,[30],> 100 µM (inactive)
same,GI50,[31],> 100 µM (inactive)
same,GI50,[32],> 100 µM
same,GI50,[33],> 100 µM (inactive)
same,GI50,[34],> 100 µM (inactive)
same,GI50,[35],> 100 µM (inactive)
same,GI50,[36],> 100 µM (inactive)
same,GI50,[37],> 100 µM (inactive)
same,GI50,[38],> 100 µM (inactive)
same,GI50,[39],> 100 µM (inactive)
same,GI50,[40],> 100 µM (inactive)
same,GI50,[41],> 100 µM (inactive)
same,GI50,[42],> 100 µM (inactive)
same,GI50,[43],> 100 µM (inactive)
same,GI50,[44],> 100 µM (inactive)
same,GI50,[45],> 100 µM (inactive)
same,GI50,[46],> 100 µM (inactive)
same,GI50,[47],> 100 µM (inactive)
same,GI50,[48],> 100 µM (inactive)
same,GI50,[49],> 100 µM (inactive)
COC(=O)C1=CC2OC1(C)C1(CC1)C2=O (configuration not stated),GI50,[2],6.92 µM (inactive)
same,GI50,[3],18.3 µM (inactive)
same,GI50,[50],15.2 µM (inactive)
same,GI50,[4],11.6 µM (inactive)
same,GI50,[5],16.1 µM (inactive)
same,GI50,[6],22.1 µM (inactive)
same,GI50,[7],19 µM (inactive)
same,GI50,[8],20.6 µM (inactive)
same,GI50,[9],16.2 µM (inactive)
same,GI50,[10],14.3 µM (inactive)
same,GI50,[51],15.5 µM (inactive)
same,GI50,[11],10.3 µM (inactive)
same,GI50,[12],13.5 µM (inactive)
same,GI50,[13],> 10 µM (inactive)
same,GI50,[14],5.73 µM (inactive)
same,GI50,[15],15.3 µM (inactive)
same,GI50,[16],23.8 µM (inactive)
same,GI50,[17],> 100 µM (inactive)
same,GI50,[18],13.8 µM (inactive)
same,GI50,[19],5.6 µM (inactive)
same,GI50,[21],17.6 µM (inactive)
same,GI50,[22],21 µM (inactive)
same,GI50,[23],17.5 µM (inactive)
same,GI50,[24],22 µM (inactive)
same,GI50,[52],16 µM (inactive)
same,GI50,[25],24.3 µM (inactive)
same,GI50,[26],13.5 µM (inactive)
same,GI50,[27],17.2 µM (inactive)
same,GI50,[28],16.6 µM (inactive)
same,GI50,[29],22.6 µM (inactive)
same,GI50,[30],17.9 µM (inactive)
same,GI50,[31],20.3 µM (inactive)
same,GI50,[32],15.9 µM
same,GI50,[33],12.9 µM (inactive)
same,GI50,[34],11.7 µM (inactive)
same,GI50,[35],76.9 µM (inactive)
same,GI50,[53],12.2 µM (inactive)
same,GI50,[37],> 10 µM (inactive)
same,GI50,[39],19.8 µM (inactive)
same,GI50,[40],> 10 µM (inactive)
same,GI50,[54],> 100 µM (inactive)
same,GI50,[41],16 µM (inactive)
same,GI50,[42],18.5 µM (inactive)
same,GI50,[55],14.7 µM (inactive)
same,GI50,[43],21.6 µM (inactive)
same,GI50,[44],6.85 µM (inactive)
same,GI50,[45],> 100 µM (inactive)
same,GI50,[56],14.7 µM (inactive)
same,GI50,[46],14 µM (inactive)
same,GI50,[47],> 10 µM (inactive)
same,GI50,[49],4.02 µM (inactive)
CC1OC(O[C@@H]2C=C3CC[C@@H]4[C@H](CC[C@]5(C)[C@@H](c6ccc(=O)oc6)CC[C@]45O)[C@@]3(C)CC2)C(O)C(OC2OC(CO)C(O)C(O)C2O)C1O (some centres not stated),GI50,[1],0.025 µM (active)
same,GI50,[3],0.025 µM (active)
same,GI50,[50],0.025 µM (active)
same,GI50,[5],0.025 µM (active)
same,GI50,[6],0.025 µM (active)
same,GI50,[7],0.025 µM (active)
same,GI50,[8],0.025 µM (active)
same,GI50,[10],0.025 µM (active)
same,GI50,[57],0.025 µM (active)
same,GI50,[16],0.0275 µM (active)
same,GI50,[17],0.025 µM (active)
same,GI50,[18],0.025 µM (active)
same,GI50,[19],0.025 µM (active)
same,GI50,[20],0.025 µM (active)
same,GI50,[22],0.025 µM (active)
same,GI50,[23],0.025 µM (active)
same,GI50,[58],0.025 µM (active)
same,GI50,[26],0.025 µM (active)
same,GI50,[28],0.025 µM (active)
same,GI50,[30],0.025 µM (active)
same,GI50,[59],0.025 µM (active)
same,GI50,[32],0.025 µM
same,GI50,[33],0.0281 µM (active)
same,GI50,[53],0.025 µM (active)
same,GI50,[36],0.025 µM (active)
same,GI50,[39],0.025 µM (active)
same,GI50,[40],0.025 µM (active)
same,GI50,[54],0.025 µM (active)
same,GI50,[41],0.025 µM (active)
same,GI50,[55],0.025 µM (active)
same,GI50,[43],0.0255 µM (active)
same,GI50,[44],0.025 µM (active)
same,GI50,[56],0.025 µM (active)
same,GI50,[46],0.025 µM (active)
same,GI50,[48],0.025 µM (active)
same,GI50,[49],0.025 µM (active)
CC1(C)CC(=O)C(=[N+]=[N-])C(=O)C1,GI50,[3],> 100 µM (inactive)
same,GI50,[50],> 100 µM (inactive)
same,GI50,[4],> 100 µM (inactive)
same,GI50,[5],> 100 µM (inactive)
same,GI50,[7],> 100 µM (inactive)
same,GI50,[8],> 100 µM (inactive)
same,GI50,[9],> 100 µM (inactive)
same,GI50,[10],> 100 µM (inactive)
same,GI50,[51],> 100 µM (inactive)
same,GI50,[12],> 100 µM (inactive)
same,GI50,[14],> 100 µM (inactive)
same,GI50,[15],> 100 µM (inactive)
same,GI50,[16],> 100 µM (inactive)
same,GI50,[18],> 100 µM (inactive)
same,GI50,[19],> 100 µM (inactive)
same,GI50,[20],> 100 µM (inactive)
same,GI50,[21],> 100 µM (inactive)
same,GI50,[23],> 100 µM (inactive)
same,GI50,[24],> 100 µM (inactive)
same,GI50,[52],> 100 µM (inactive)
same,GI50,[25],> 100 µM (inactive)
same,GI50,[26],> 100 µM (inactive)
same,GI50,[27],> 100 µM (inactive)
same,GI50,[28],> 100 µM (inactive)
same,GI50,[30],> 100 µM (inactive)
same,GI50,[31],> 100 µM (inactive)
same,GI50,[59],> 100 µM (inactive)
same,GI50,[32],> 100 µM
same,GI50,[33],> 100 µM (inactive)
same,GI50,[34],> 100 µM (inactive)
same,GI50,[35],> 100 µM (inactive)
same,GI50,[53],> 100 µM (inactive)
same,GI50,[37],> 100 µM (inactive)
same,GI50,[38],> 100 µM (inactive)
same,GI50,[39],> 100 µM (inactive)
same,GI50,[40],> 100 µM (inactive)
same,GI50,[54],> 100 µM (inactive)
same,GI50,[42],> 100 µM (inactive)
same,GI50,[55],> 100 µM (inactive)
same,GI50,[43],> 100 µM (inactive)
same,GI50,[44],> 100 µM (inactive)
same,GI50,[45],> 100 µM (inactive)
same,GI50,[56],> 100 µM (inactive)
same,GI50,[46],> 100 µM (inactive)
same,GI50,[48],> 100 µM (inactive)
same,GI50,[49],> 100 µM (inactive)
